# Measurements from patent US7452865B2, “Antagonistic analogs of GH RH (2003)” (The Administrare's of the Tulane Educational Fund, priority 2004, dated 2008).
# Marks after values point to notes of the source that are not given here. Square brackets hold non-standard residues; d marks the D form. Peptide text beside a SMILES is read from it. * marks the point of attachment. Phe(4-Cl) = N[C@@H](Cc1ccc(Cl)cc1)C(=O)O; hArg = N=C(N)NCCCC[C@H](N)C(=O)O; Nle = CCCC[C@H](N)C(=O)O; Abu = CC[C@H](N)C(=O)O; PhAc = O=C(Cc1ccccc1)*
# Columns and labels:
# IGF-I [1] = test: PC-3 xenografts, Experiment 2: serum IGF-I (RIA); assay type: in vivo, nude mice; details: 28 days
# From the text: (§1) For the measurement of GH and IGF-I levels in the serum, as well as IGF-I and IGF-II concentrations in the cytosol fraction of tumors, blood samples and tumor samples were collected and processed as described (Braczkowski R, Schally A V, Plonowski A, Varga J L, Groot K, Krupa M, Armatis P, Cancer 95: 1735-1745, 2002), hereby incorporated by reference. Briefly, blood samples are centrifuged to separate the serum, tumors are homogenized and centrifuged to separate the cytosol fraction. Serum GH is then measured by the double-antibody RIA method. Before measurement by RIA, IGF-I and IGF-II are extracted from serum and cytosol fractions using an acid-ethanol cryoprecipitation method that eliminates most of the IGF binding proteins, which can interfere with the RIA. IGF-I concentration is measured by RIA using IGF-I as a standard and goat anti-IGF-I antibody (both from DSL Inc., Webster, Tex.). IGF-II concentration is measured by RIA using human recombinant IGF-II (Bachem) as a standard and anti-IGF-II monoclonal antibody (Amano International Enzyme, Troy, Va.).
# (§2) Male nude mice were implanted s.c. with 3 mm^3 pieces of PC-3 human hormone-independent prostate cancer tissue on both flanks. When tumors reached a volume of approx. 50 mm^3, the mice were divided into 5 experimental groups with 7 to 8 animals in each group and received single daily injections for 28 days as follows: 1. Control (vehicle solution); 2. JV-1-38 (10 μg/day s.c.); 3 Peptide 31 (10 μg/day s.c.); 4. Peptide 67 (10 μg/day s.c.); 5. Peptide 62 (10 μg/day s.c.). Tumor volumes were measured twice a week. The experiment was ended on day 29 by sacrificing the mice under Isoflurane anesthesia. Resulting tumors were cleaned, weighed, and snap-frozen until further analyses. Trunk blood was collected from the abdominal aorta and serum was separated for RIA measurement of IGF-I. Statistical analyses of the measurement results were done by two-tailed t-test; data are presented as the means±S.E.
# (§3) Experiment 2 was similar to Experiment 1, with the difference that Experiment 2 was started when PC-3 tumors had grown to approximately 30 mm^3 in volume. At this time, the animals were divided into 8 experimental groups with 8 animals in each group, and received single daily injections for 28 days as follows. 1. Control (vehicle solution); 2. JV-1-38 (10 μg/day s.c.); 3. Peptide 46 (5 μg/day: s.c.); 4. Peptide 77 (5 μg/day s.c); 5. Peptide 76 (5 μg/day s.c.); 6. Peptide 70 (5 μg/day s.c.); 7 Peptide 79 (5 μg/day s.c.); 8. Peptide 80 (5 μg/day s.c.). Further details of Experiment 2 are the same as for Experiment 1.
# [2] = tested on: PC-3 human prostate cancer xenografts; test: PC-3 xenografts in nude mice, Experiment 3: tumor growth; assay type: in vivo
# Summary of the method: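 Male nude mice bearing s.c. PC-3 tumour fragments on both flanks (~65 mm^3 at start), 8–9 per group, given daily s.c. injections at 10 μg/day for 28 days vs vehicle. Tumour volume measured twice weekly; at day 28 tumours weighed and serum IGF-I measured by RIA; ANOVA with Fisher test, means±S.E.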
# IGF-II = test: PC-3 xenografts, Experiment 1: tumor IGF-II (RIA); assay type: in vivo, nude mice; details: 10 μg/day s.c., 28 days
# From the text: as §1, §2
# [3] = tested on: hGH-RH(1-29)NH2 induced GH release; test: Inhibition of GH release in superfused rat pituitary system; assay type: cell-based; details: antagonist 30 nM
# Summary of the method: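 Dispersed rat pituitary cells in superfusion were preincubated 9 min with analog at various concentrations, then stimulated with 1 nM hGH-RH(1-29)NH2 for 3 min, repeated at 30, 60, 90, 120 min to gauge duration. GH measured by double-antibody RIA; net integrated responses expressed as percent of the initial 1 nM GH-RH response.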
# IGF-I [4] = test: PC-3 xenografts, Experiment 1: serum IGF-I (RIA); assay type: in vivo, nude mice; details: 10 μg/day s.c., 28 days
# From the text: as §1, §2
# [5] = tested on: PC-3 human prostate cancer xenografts; test: PC-3 xenografts in nude mice, Experiment 1: tumor growth; assay type: in vivo
# Protocol: as §2
# [6] = tested on: PC-3 human prostate cancer xenografts; test: PC-3 xenografts in nude mice, Experiment 2: tumor growth; assay type: in vivo; details: for Tumor volume (mm^3) Initial: at start of treatment
# Protocol: as §2, §3
# IGF-I [7] = test: PC-3 xenografts, Experiment 4: serum IGF-I (RIA); assay type: in vivo, nude mice; details: 5 μg/day s.c., 28 days
# From the text: as §1
# (§4) Male nude mice were implanted s.c. with 3 mm^3 pieces of PC-3 human hormone-independent prostate cancer tissue on both flanks. When tumors reached a volume of approximately 65 mm^3, the mice were divided into 7 experimental groups with 8 to 9 animals in each group and received single daily injections for 28 days as follows: 1. Control (vehicle solution); 2. JV-1-38 (10 μg/day s.c.); 3. Peptide 35 (10 μg/day s.c.); 4. Peptide 36 (10 μg/day s.c.); 5. Peptide 37 (10 μd/day s.c.); 6. Peptide 39 (10 μg/day s.c.); 7. Peptide 41 (10 μg/day s.c.). Tumor volumes were measured twice a week. The experiment was ended on day 28 by sacrificing the mice under Isofurane anesthesia. Resulting tumors were cleaned, weighed, and snapfrozen until further analyses. Trunk blood was collected from the abdominal aorta and serum was separated for RIA measurement of IGF-I. Statistical analyses of the measurement results were done by ANOVA followed by Fisher test; data are presented as the means±S.E.
# (§5) All experimental details of Experiment 4 are the same as for Experiment 3, with the following difference. When tumors reached a volume of approximately 55 mm^3, the mice were divided into 5 experimental groups with 8 to 9 animals in each group and received single daily injections for 28 days as follows: 1. Control (vehicle solution); 2. Peptide 80 (5 μg/day s.c.); 3. Peptide 86 (5 μg/day s.c.); 4. Peptide 95 (5 μg/day s.c.); 5. Peptide 96 (5 μg/day s.c.). Further details of Experiment 4 are the same as for Experiment 3.
# [8] = tested on: PC-3 human prostate cancer xenografts; test: PC-3 xenografts in nude mice, Experiment 4: tumor growth; assay type: in vivo
# Protocol: as §4, §5
# [9] = tested on: GH-RH receptor isoforms on membrane fractions of human PC-3 prostate tumors; assay type: binding; details: general statement
# Summary of the method: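 Competitive displacement of [^125I]JV-1-42 from crude membranes of human PC-3 prostate tumours grown as nude-mouse xenografts, with unlabelled peptides at 10^−12 to 10^−6 M. Bound radioactivity in the centrifuged pellet gamma-counted; Ki from Munson–Rodbard analysis. Relative affinity = Ki of reference peptide (JV-1-36 or JV-1-38) / Ki of test antagonist.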
# [10] = 10 μg/day s.c., 28 days, vs control
# [11] = 5 μg/day s.c., 28 days, vs control
molecule,measurement,setting,value
"CCCC[C@H](NC(=O)[C@@H](NC(=O)[C@H](CC(=O)O)NC(=O)[C@H](CCC(N)=O)NC(=O)[C@H](CC(C)C)NC(=O)[C@H](CC(C)C)NC(=O)[C@H](CCCCN)NC(=O)[C@H](CCCNC(=N)N)NC(=O)[C@H](C)NC(=O)[C@H](CO)NC(=O)[C@H](CC(C)C)NC(=O)[C@H](CCC(N)=O)NC(=O)[C@H](CC)NC(=O)[C@H](CC(C)C)NC(=O)[C@@H](NC(=O)[C@H](CCCCN)NC(=O)[C@H](CCCNC(=N)N)NC(=O)[C@H](Cc1ccc(OC)cc1)NC(=O)[C@H](CCCCNC(=N)N)NC(=O)[C@H](CC(N)=O)NC(=O)[C@@H](NC(=O)[C@H](Cc1ccc(Cl)cc1)NC(=O)[C@@H](NC(=O)[C@H](C)NC(=O)[C@H](CC(=O)O)NC(=O)[C@@H](CCCNC(=N)N)NC(=O)[C@H](Cc1ccc(O)cc1)NC(=O)Cc1ccccc1)[C@@H](C)CC)[C@@H](C)O)C(C)C)[C@@H](C)CC)C(=O)N[C@H](CCCNC(=N)N)C(=O)N[C@@H](CCCCNC(=N)N)C(N)=O [JV-1-38, reference compound] (PhAc-Y[dR]DAI[Phe(4-Cl)]TN[hArg]Y(Me)RKVL[Abu]QLSARKLLQDI[Nle][dR][hArg]-NH2; N-terminus and C-terminus assumed)",Serum IGF-I,IGF-I [1]; 10 μg/day s.c.,293 ± 28.0 ng/mL
same,Tumor volume (mm^3) Final,"[2]; 10 μg/day s.c., 28 days",276 ± 48.7** mm^3
same,Tumor volume doubling time,"[2]; 10 μg/day s.c., 28 days",18.2 ± 1.84 days
same,Tumor weight,"[2]; 10 μg/day s.c., 28 days",386 ± 62.9 mg
same,Tumor volume Final (% inhibition),[2]; [10],(66%)
same,Tumor weight (% inhibition),[2]; [10],(45%)
same,Tumor volume (mm^3) Initial,[2]; at start of treatment,68.3 ± 8.08 mm^3
same,Tumor IGF-II (pg/mg protein),IGF-II,208 ± 43.3 pg/mg protein
same,Tumor IGF-II (% inhibition),IGF-II; vs control,(5%)
same,GH response (% of control) 0 min,[3]; 1 nM hGH-RH(1-29)NH2 at 0 min,59 % of control
same,GH response (% of control) 30 min,[3]; 1 nM hGH-RH(1-29)NH2 at 30 min,32 % of control
same,GH response (% of control) 60 min,[3]; 1 nM hGH-RH(1-29)NH2 at 60 min,28 % of control
same,GH response (% of control) 90 min,[3]; 1 nM hGH-RH(1-29)NH2 at 90 min,34 % of control
same,GH response (% of control) 120 min,[3]; 1 nM hGH-RH(1-29)NH2 at 120 min,31 % of control
same,Serum IGF-I,IGF-I [4],147 ± 8.49 ng/mL
same,Serum IGF-I (% inhibition),IGF-I [4]; vs control,(1%)
same,Tumor volume (mm^3) Final,"[5]; 10 μg/day s.c., 28 days",291 ± 80.4 mm^3
same,Tumor volume doubling time,"[5]; 10 μg/day s.c., 28 days",12.3 ± 1.04 days
same,Tumor weight,"[5]; 10 μg/day s.c., 28 days",239 ± 58.0 mg
same,Tumor volume Final (% inhibition),[5]; [10],(42%)
same,Tumor weight (% inhibition),[5]; [10],(37%)
same,Tumor volume (mm^3) Initial,[5]; at start of treatment,49.2 ± 8.37 mm^3
same,Tumor volume (mm^3) Initial,[6]; 10 μg/day group,29.3 ± 3.8 mm^3
same,Tumor volume (mm^3) Final,"[6]; 10 μg/day s.c., 28 days",351 ± 72.9 mm^3
same,Tumor volume doubling time,"[6]; 10 μg/day s.c., 28 days",8.7 ± 0.7 days
same,Tumor weight,"[6]; 10 μg/day s.c., 28 days",254 ± 52.0 mg
same,Tumor volume Final (% inhibition),[6]; [10],(0%)
"[CH3(CH2)6CO-Tyr^1, D-Arg^2, Phe(pCl)^6, Ala^8, His^9, Tyr(Et)^10, His^11, Abu^15, Nle^27, D-Arg^28, Har^29]hGH-RH(1-29)NH2 [Peptide 80]",Serum IGF-I,IGF-I [1]; 5 μg/day s.c.,152 ± 7.83 ng/mL
same,Serum IGF-I (% inhibition),"IGF-I [1]; 5 μg/day s.c., vs control",42%
same,Serum IGF-I,IGF-I [7],136 ± 15.3 ng/mL
same,Serum IGF-I (% inhibition),IGF-I [7]; vs control,18%
same,Tumor volume (mm^3) Final,"[8]; 5 μg/day s.c., 28 days",398 ± 68.7* mm^3
same,Tumor volume doubling time,"[8]; 5 μg/day s.c., 28 days",10.7 ± 1.28 days
same,Tumor weight,"[8]; 5 μg/day s.c., 28 days",752 ± 150 mg
same,Tumor volume Final (% inhibition),[8]; [11],68%
same,Tumor weight (% inhibition),[8]; [11],48%
same,Tumor volume (mm^3) Initial,[8]; at start of treatment,53.2 ± 10.1 mm^3
same,Tumor volume (mm^3) Initial,[6]; 5 μg/day groups,24.8 ± 2.2 mm^3
same,Tumor volume (mm^3) Final,"[6]; 5 μg/day s.c., 28 days",128 ± 38.9*# mm^3
same,Tumor volume doubling time,"[6]; 5 μg/day s.c., 28 days",16.7 ± 4.3 days
same,Tumor weight,"[6]; 5 μg/day s.c., 28 days",137 ± 46.1 mg
same,Tumor volume Final (% inhibition),[6]; [11],(64%)
same,Tumor weight (% inhibition),[6]; [11],(52%)
same,binding affinities to the tumoral receptors for GH-RH (in words),[9],extremely high binding affinities
